# According to patent US20240116889A1, “ANTIVIRAL COMPOUNDS AND METHODS” (priority 2019, published 2024):
# Entries after “also recorded” stand apart in the source; their conditions may differ. Like-named read-outs stand apart in the source and are kept apart here.
# Tests used:
# pdm H1N1 virus = type: cell-based, influenza A virus (A/California/07/2009); details: NPTr cells; 0.5 μM TG 30 min; […]
# RIG-I, OAS1 and PKR = type: cell-based, pig; details: NPTr cells (TG also NHBE cells and myoblasts); priming before or during infection
# USSR H1N1 virus = type: cell-based, influenza A virus (A/USSR/77)
# [1] = tested on: extracellular Ca^2+ influx; experiment: Intracellular Ca2+ monitoring assay (Fluo-8) in NPTr cells; type: cell-based, pig; details: non-toxic doses (CPA up to 5 μM; TG 10 min)
# SARS-CoV-2 = SARS-CoV-2 replication in Calu-3 cells (RT-qPCR of media); type: cell-based
# [2] = tested on: RSV (A2 strain, ATCC VR-1540); experiment: RSV production from infected HEp2 cells (immuno-detection / RT-qPCR); type: cell-based, human respiratory syncytial virus
# human coronavirus OC43 = type: cell-based; details: MRC-5 cells
# [3] = NPTr cells, 30 min priming, […]
structure (smiles),measurement,setting,value
"C/C=C(/C)C(=O)O[C@H]1C(C)=C2[C@H]([C@@H]1OC(=O)CCCCCCC)[C@@](C)(OC(C)=O)C[C@H](OC(=O)CCC)[C@@]1(O)[C@H]2OC(=O)[C@@]1(C)O [TG, thapsigargin]","virus production, TG before vs 6 h after infection",pdm H1N1 virus,comparable reduction in virus production
same,expression of type I IFN associated genes in response to infection,"RIG-I, OAS1 and PKR",consistently increased the expression of type I IFN associated genes
same,progeny virus output vs DMSO control,USSR H1N1 virus,marked reduction in virus output
same,virus reduction,USSR H1N1 virus; NPTr cells pre-primed with 0.1 μM TG for 30 min,82%
same,virus reduction,USSR H1N1 virus; NPTr cells pre-primed with 0.5 μM TG for 30 min,93%
same,duration of the antiviral state after TG exposure,"USSR H1N1 virus; NPTr cells, 0.5 μM TG for 30 min",at least 24 h
same,IC50,USSR H1N1 virus; [3],7.12 nM
same,Selectivity index (CC50/IC50),USSR H1N1 virus; [3],7952.21
same,extracellular Ca^2+ influx,[1],modest Ca^2+ influx
same,"SARS-CoV-2, separate infection and co-infection with pdm 2009 H1N1",SARS-CoV-2,blocked
same,"SARS-CoV-2 replication, post-infection priming",SARS-CoV-2,just as effective in virus inhibition as pre-infection TG priming
same,SARS-CoV-2 replication,"SARS-CoV-2; Calu-3 cells, […], HC primed and continuously present",highly inhibitory
same,"RSV replication, priming 24 h before or 24 h post-infection","[2]; HEp2 cells, 30 min TG priming, 72 h infection",strongly inhibited RSV replication
same,"RSV production, TG priming 48 h post-infection","[2]; HEp2 cells, 30 min priming",rapidly effective in blocking virus production at 48 h post-infection
same,duration of sustained anti-viral effect on RSV,"[2]; HEp2 cells, 30 min priming",over 48 h
same,Selectivity index,"[2]; HEp-2 cells, 3 d infection period",1346.499
same,IC50,"[2]; HEp-2 cells, RSV, 3 d infection period",66.8 nM
same,"RSV progeny virus production, viral M-gene RNA","[2]; HEp-2 cells, TG 30 min priming, Riba continuously present, four days post-infection",superior to the continuous presence of ribavirin; also recorded: significantly inhibited
same,cell viability after priming,NHBE cells; 30 min priming at doses used for infection studies,no cytotoxic effect on cell viability
same,cell viability on continuous exposure,NHBE cells; continuous 5 nM TG for 24 h,no reduction in cell viability
same,CC50,"NHBE cells; read-out: cellular cytotoxicity CC50, 30 min priming, viability after 24 h",33500 nM
same,hCoV OC43 replication / progeny production,"human coronavirus OC43; TG 0.05 or 0.5 μM 30 min pre-infection, HC pre-infection or continuous",dramatic dose-responsive reduction in coronavirus replication
same,cell loss and cytopathic effects of infected cells,human coronavirus OC43; TG-primed,limited cell loss and little morphological change
